Assay: Stability of dried 99mTcNCl4- preparation
Assay type: physicochemical
Protocol: Samples of the ^99m TcNCl4^- preparation were taken to dryness in a rotary evaporator and stored for 24 hours (a) in air at room temperature, (b) at 80° C., and (c) at room temperature and 100% humidity. They were then used to prepare ^99m TcN-DTPA by addition of ligand as before.

## [N]#[99Tc-]([Cl])([Cl])([Cl])[Cl].[Na+] [^99m TcNCl4^-, sodium tetrachloronitridotechnetate]
24 hours in air at room temperature, at 80° C., or at room temperature and 100% humidity, tested as 99mTcN-DTPA
  chromatographic behaviour (HPLC) after storage of the dry reagent: No significant difference in chromatographic behaviour
Dry preparation
  stability of the dry preparation for distribution: sufficiently stable to be prepared in a central laboratory or manufacturing site and distributed to users
dry, air at room temperature, 80° C., or room temperature and 100% humidity
  storage time for which the dry reagent was stable ("stable for up to"): ≥ 24 h

Source: US4923969A, “Preparation of 99m Tc radiopharmaceuticals” (The Commonwealth of Australia, priority 1983, dated 1990)
